# pIC50: −log10 of the molar value.
# Legend:
# [1] = test system: Epidermal growth factor receptor (Homo sapiens), P00533 [L861Q]; assay: Inhibition of EGFR L861Q mutant (unknown origin) assessed as remaining activity at 1 uM by Kinome scan method relative to control
# [2] = biological target: Receptor tyrosine-protein kinase erbB-4 (Homo sapiens) (UniProt Q15303); assay: Inhibition of ERBB4 (unknown origin) assessed as remaining activity at 1 uM by Kinome scan method relative to control
# [3] = biological target: Protein kinase C theta type (Homo sapiens) (UniProt Q04759); assay: Inhibition of PRKCQ (unknown origin) assessed as remaining activity at 1 uM by Kinome scan method relative to control
# Protein kinase C theta type (Homo sapiens), sequence (Q04759 whole entry, looked up): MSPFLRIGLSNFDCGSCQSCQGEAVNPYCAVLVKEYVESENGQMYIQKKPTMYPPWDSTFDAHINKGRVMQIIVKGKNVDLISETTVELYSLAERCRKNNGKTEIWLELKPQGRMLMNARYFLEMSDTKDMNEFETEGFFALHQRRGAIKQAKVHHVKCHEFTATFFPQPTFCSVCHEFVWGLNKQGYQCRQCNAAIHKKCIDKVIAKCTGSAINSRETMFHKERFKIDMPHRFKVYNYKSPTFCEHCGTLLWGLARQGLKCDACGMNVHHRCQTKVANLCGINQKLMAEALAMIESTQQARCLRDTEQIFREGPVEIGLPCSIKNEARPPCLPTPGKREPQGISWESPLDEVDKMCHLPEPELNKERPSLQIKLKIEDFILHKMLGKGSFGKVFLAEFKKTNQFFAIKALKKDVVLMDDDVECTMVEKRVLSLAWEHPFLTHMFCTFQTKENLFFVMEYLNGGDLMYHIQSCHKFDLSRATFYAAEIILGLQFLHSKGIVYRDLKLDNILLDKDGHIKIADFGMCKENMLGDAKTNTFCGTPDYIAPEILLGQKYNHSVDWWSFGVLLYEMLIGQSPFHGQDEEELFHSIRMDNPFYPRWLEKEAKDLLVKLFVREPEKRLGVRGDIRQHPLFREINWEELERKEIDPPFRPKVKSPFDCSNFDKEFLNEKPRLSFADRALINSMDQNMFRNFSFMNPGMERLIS
# [4] = biological target: Tyrosine-protein kinase ABL1 (Homo sapiens) (UniProt P00519); assay: Inhibition of human ABL1 assessed as residual activity at 1 uM using poly(Ala,Glu,Lys,Tyr)6:2:5:1 as substrate in presence of 33P-ATP by ProQinase assay relative to control
# [5] = biological target: Tyrosine-protein kinase ABL2 (Homo sapiens) (UniProt P42684); assay: Inhibition of human ABL2 assessed as residual activity at 1 uM using Poly(Ala,Glu,Lys,Tyr)6:2:5:1 as substrate in presence of 33P-ATP by ProQinase assay relative to control
# Tyrosine-protein kinase ABL2 (Homo sapiens), sequence (P42684 whole entry): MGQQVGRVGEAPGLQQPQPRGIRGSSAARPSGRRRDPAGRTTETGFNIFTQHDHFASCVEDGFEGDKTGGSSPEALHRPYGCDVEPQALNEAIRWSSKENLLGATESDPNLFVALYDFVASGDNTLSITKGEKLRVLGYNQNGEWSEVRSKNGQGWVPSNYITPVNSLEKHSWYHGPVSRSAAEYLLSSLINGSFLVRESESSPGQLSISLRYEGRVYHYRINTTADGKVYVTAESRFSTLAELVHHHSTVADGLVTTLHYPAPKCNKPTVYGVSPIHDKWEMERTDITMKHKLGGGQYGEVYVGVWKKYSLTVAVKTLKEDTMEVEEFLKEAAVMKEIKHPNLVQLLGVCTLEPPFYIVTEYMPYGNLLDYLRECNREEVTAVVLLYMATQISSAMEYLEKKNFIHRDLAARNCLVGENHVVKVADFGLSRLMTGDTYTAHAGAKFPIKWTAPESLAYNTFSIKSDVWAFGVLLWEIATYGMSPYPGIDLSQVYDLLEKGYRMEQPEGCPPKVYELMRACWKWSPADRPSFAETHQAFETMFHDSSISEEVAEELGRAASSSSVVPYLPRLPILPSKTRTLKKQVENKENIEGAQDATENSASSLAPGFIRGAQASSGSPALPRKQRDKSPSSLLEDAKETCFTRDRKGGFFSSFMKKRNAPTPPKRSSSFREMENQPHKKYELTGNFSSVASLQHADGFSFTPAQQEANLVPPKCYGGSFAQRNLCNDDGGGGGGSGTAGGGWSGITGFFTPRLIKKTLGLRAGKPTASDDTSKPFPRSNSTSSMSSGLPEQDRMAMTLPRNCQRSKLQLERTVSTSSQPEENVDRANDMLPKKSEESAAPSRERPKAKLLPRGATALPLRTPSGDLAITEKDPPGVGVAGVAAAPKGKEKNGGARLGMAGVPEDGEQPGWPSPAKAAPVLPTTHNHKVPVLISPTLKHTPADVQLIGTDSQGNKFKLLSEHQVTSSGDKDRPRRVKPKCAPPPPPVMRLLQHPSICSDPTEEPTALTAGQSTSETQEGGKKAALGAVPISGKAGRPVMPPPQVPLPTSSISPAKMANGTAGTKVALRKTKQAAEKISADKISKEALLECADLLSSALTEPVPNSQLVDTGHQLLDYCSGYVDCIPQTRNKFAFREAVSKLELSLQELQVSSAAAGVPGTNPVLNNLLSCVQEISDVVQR
# [6] = biological target: Activin receptor type-1 (Homo sapiens) (UniProt Q04771); assay: Inhibition of human ACVR1 assessed as residual activity at 1 uM using RBER-GSK3(14-27) as substrate in presence of 33P-ATP by ProQinase assay relative to control
# Activin receptor type-1 (Homo sapiens), sequence (Q04771 whole entry): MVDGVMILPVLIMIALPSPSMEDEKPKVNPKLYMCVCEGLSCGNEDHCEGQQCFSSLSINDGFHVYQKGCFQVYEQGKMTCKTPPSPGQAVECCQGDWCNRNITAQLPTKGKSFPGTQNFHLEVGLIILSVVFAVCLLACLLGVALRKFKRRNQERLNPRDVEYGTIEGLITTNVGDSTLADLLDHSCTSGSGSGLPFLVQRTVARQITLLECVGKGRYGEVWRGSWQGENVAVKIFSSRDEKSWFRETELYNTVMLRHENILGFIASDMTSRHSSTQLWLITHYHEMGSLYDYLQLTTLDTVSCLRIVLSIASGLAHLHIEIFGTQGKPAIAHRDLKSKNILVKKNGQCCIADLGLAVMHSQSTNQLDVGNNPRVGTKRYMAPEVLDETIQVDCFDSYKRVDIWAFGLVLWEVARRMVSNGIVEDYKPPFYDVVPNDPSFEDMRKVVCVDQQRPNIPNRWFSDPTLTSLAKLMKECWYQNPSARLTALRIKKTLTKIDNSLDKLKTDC
# [7] = biological target: Activin receptor type-1B (Homo sapiens) (UniProt P36896); assay: Inhibition of human ACVR1B assessed as residual activity at 1 uM using RBER-CHKtide as substrate in presence of 33P-ATP by ProQinase assay relative to control
# Activin receptor type-1B (Homo sapiens), sequence (P36896 whole entry): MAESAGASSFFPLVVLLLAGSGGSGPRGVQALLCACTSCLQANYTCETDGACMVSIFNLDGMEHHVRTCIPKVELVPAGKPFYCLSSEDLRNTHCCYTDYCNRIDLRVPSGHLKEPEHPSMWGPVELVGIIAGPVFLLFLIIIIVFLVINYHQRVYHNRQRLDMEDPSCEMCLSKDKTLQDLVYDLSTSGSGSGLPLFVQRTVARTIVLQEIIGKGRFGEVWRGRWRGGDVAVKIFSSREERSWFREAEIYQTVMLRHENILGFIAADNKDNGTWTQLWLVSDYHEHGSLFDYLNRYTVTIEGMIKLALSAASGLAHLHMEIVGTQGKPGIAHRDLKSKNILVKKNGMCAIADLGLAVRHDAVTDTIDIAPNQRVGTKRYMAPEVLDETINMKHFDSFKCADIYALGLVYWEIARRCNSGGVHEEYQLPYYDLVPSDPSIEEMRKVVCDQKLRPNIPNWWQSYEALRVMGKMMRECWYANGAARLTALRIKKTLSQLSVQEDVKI
# [8] = biological target: Cytoplasmic tyrosine-protein kinase BMX (Homo sapiens) (UniProt P51813); assay: Inhibition of human BMX assessed as residual activity at 1 uM using polyEy as substrate in presence of 33P-ATP by ProQinase assay relative to control
# [9] = biological target: Calcium/calmodulin-dependent protein kinase kinase 2 (Homo sapiens) (UniProt Q96RR4); assay: Inhibition of human CAMKK2 assessed as residual activity at 1 uM using RBER-GSK3 as substrate in presence of 33P-ATP by ProQinase assay relative to control
# [10] = test system: Epidermal growth factor receptor (Homo sapiens), P00533 [G719C]; assay: Inhibition of human EGFR G719C mutant assessed as residual activity at 1 uM using PolyEY as substrate in presence of 33P-ATP by ProQinase assay relative to control
# [11] = biological target: T1, Ephrin type-A receptor 3 (Homo sapiens) (UniProt P29320); assay: Inhibition of human EPHA3 assessed as residual activity at 1 uM using polyEY as substrate in presence of 33P-ATP by ProQinase assay relative to control
# T1 sequence (whole entry): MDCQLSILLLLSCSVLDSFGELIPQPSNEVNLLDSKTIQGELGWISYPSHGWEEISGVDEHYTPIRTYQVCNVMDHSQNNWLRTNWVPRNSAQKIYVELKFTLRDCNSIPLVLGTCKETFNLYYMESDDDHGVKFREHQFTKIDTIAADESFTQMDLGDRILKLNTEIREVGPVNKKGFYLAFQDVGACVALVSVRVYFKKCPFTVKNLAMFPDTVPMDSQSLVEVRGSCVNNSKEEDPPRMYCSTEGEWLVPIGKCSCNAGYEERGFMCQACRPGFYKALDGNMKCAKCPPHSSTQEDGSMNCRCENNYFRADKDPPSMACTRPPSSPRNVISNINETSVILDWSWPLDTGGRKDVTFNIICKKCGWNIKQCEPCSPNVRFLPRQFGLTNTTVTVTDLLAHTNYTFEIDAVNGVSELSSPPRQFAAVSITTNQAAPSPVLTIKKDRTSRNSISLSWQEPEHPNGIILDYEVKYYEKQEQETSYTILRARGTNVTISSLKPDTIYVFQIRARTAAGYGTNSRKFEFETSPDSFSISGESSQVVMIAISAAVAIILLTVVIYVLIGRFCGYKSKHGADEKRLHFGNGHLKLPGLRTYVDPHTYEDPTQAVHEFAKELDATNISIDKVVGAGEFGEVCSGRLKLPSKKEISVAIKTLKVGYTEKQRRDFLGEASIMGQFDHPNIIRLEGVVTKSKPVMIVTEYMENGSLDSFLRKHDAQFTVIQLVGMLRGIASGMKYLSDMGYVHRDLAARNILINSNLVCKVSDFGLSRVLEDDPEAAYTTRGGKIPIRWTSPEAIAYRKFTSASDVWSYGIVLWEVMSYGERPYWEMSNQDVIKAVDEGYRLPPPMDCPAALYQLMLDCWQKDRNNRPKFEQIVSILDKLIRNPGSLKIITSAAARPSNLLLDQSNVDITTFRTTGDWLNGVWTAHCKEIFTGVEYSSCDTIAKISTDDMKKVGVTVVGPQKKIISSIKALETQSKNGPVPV
# [12] = biological target: Receptor-type tyrosine-protein kinase FLT3 (Homo sapiens) (UniProt P36888); assay: Inhibition of human FLT3 assessed as residual activity at 1 uM using Poly(Ala,Glu,Lys,Tyr)6:2:5:1 as substrate in presence of 33P-ATP by ProQinase assay relative to control
# Receptor-type tyrosine-protein kinase FLT3 (Homo sapiens), sequence (P36888 whole entry): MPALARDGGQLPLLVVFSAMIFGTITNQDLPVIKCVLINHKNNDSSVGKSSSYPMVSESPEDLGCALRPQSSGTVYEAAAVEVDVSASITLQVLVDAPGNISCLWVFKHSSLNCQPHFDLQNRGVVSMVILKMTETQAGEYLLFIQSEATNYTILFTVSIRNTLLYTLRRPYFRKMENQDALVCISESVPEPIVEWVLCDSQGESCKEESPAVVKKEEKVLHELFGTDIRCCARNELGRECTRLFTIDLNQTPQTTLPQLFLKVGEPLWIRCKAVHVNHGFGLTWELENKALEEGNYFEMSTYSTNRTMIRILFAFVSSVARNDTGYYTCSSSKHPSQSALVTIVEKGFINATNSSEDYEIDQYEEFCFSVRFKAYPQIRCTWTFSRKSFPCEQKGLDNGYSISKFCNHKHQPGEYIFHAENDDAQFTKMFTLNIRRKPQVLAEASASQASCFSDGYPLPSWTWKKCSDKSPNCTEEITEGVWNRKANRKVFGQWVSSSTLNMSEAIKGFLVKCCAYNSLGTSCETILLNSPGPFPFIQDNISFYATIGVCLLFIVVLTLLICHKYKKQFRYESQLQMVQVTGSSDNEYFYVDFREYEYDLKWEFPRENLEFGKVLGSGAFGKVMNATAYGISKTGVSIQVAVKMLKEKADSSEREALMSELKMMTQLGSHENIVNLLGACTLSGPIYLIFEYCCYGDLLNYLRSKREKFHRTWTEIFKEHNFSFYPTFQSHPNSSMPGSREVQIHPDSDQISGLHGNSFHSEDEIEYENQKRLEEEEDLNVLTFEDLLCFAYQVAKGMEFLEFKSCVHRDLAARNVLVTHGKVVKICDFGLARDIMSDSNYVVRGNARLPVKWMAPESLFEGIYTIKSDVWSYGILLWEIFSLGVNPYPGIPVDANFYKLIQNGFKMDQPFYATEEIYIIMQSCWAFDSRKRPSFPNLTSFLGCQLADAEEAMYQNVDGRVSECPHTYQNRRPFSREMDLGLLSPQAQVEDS
# [13] = biological target: MAP kinase-activated protein kinase 5 (Homo sapiens) (UniProt Q8IW41); assay: Inhibition of human MAPKAPK5 assessed as residual activity at 1 uM using RBER-CHKtide as substrate in presence of 33P-ATP by ProQinase assay relative to control
# [14] = biological target: Mitogen-activated protein kinase 13 (Homo sapiens) (UniProt O15264); assay: Inhibition of human p38delta assessed as residual activity at 1 uM using RBER-CHKtide as substrate in presence of 33P-ATP by ProQinase assay relative to control
# Mitogen-activated protein kinase 13 (Homo sapiens), sequence (O15264 whole entry): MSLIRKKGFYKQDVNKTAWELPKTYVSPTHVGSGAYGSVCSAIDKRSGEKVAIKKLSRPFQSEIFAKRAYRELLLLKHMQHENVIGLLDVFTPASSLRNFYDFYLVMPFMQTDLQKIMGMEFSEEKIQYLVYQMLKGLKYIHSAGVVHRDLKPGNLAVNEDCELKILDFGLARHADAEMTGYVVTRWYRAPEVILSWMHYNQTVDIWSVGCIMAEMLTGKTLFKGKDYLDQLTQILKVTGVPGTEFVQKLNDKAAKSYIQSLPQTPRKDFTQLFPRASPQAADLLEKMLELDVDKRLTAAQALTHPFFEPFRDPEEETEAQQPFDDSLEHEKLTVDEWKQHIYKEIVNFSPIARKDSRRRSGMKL
# [15] = biological target: Protein kinase C alpha type (Homo sapiens) (UniProt P17252); assay: Inhibition of human PKCalpha assessed as residual activity at 1 uM using 3xChocktide-PKC(19-31) as substrate in presence of 33P-ATP by ProQinase assay relative to control
# [16] = biological target: Protein kinase C gamma type (Homo sapiens) (UniProt P05129); assay: Inhibition of human PKCgamma assessed as residual activity at 1 uM using 3xChocktide-PKC(19-31) as substrate in presence of 33P-ATP by ProQinase assay relative to control
# [17] = Anti-inflammatory activity against human derived high respond PBMC cells assessed as inhibition in stimulated TNF-alpha cytokine release incubated for 2 hrs in the presence of LPS/SEB/aCD28 by Luminex based sandwich immunoassay; assay type: functional, cell-based
# [18] = Anti-inflammatory activity against human derived high respond PBMC cells assessed as inhibition in stimulated IL-1alpha cytokine release incubated for 2 hrs in the presence of LPS/SEB/aCD28 by Luminex based sandwich immunoassay; assay type: functional, cell-based
# [19] = Anti-inflammatory activity against human derived high respond PBMC cells assessed as inhibition in stimulated IL-10 cytokine release incubated for 2 hrs in the presence of LPS/SEB/aCD28 by Luminex based sandwich immunoassay; assay type: functional, cell-based
smiles,measurement,setting,value
O=C1c2ccc(Nc3ccc(F)cc3F)cc2CCc2ccc(OC[C@H](O)CO)cc21 [Skepinone-L],Activity,[1],72%
same,Activity,[2],97%
same,Activity,[3],83%
same,Activity,[4],95%
same,Activity,[5],99%
same,Activity,[6],94%
same,Activity,[7],77%
same,Activity,[8],108%
same,Activity,[9],97%
same,Activity,[10],74%
same,Activity,[11],107%
same,Activity,[12],106%
same,Activity,[13],97%
same,Activity,[14],80%
same,Activity,[15],96%
same,Activity,[16],99%
same,pIC50,[17],7.30
same,pIC50,[18],6.92
same,pIC50,[19],7.30

# From ChEMBL document CHEMBL5696441 (Nat Chem Biol, 2011)
